Bridge positions count the residues as written; N and C are the ends. Square brackets hold non-standard residues; d marks the D form. Peptide text beside a SMILES is read from it. * marks the point of attachment. ξ: configuration not given here. Phe(4-CONH2) = NC(=O)c1ccc(C[C@H](N)C(=O)O)cc1; Bip = N[C@@H](Cc1ccc(-c2ccccc2)cc1)C(=O)O; Phe(3-Me) = Cc1cccc(C[C@H](N)C(=O)O)c1; Val(3-OH) = CC(C)(O)[C@H](N)C(=O)O; Cha = N[C@@H](CC1CCCCC1)C(=O)O; Thr(3ξ) = CC(O)[C@H](N)C(=O)O; 12Ado = NCCCCCCCCCCCC(=O)O; Carboxymethyl = O=C(O)C*; Orn = NCCC[C@H](N)C(=O)O; Dab = NCC[C@H](N)C(=O)O; Dap = NC[C@H](N)C(=O)O
Biological target: T1, PD-1/PD-L1 interaction (PE-labeled human PD-L1-Ig binding to Jurkat cell line over-expressing human PD-1) (Homo sapiens, UniProt Q15116)
T1 construct: expressed in transfected cells; host or cells: Jurkat
T1 sequence (Q15116 25-288): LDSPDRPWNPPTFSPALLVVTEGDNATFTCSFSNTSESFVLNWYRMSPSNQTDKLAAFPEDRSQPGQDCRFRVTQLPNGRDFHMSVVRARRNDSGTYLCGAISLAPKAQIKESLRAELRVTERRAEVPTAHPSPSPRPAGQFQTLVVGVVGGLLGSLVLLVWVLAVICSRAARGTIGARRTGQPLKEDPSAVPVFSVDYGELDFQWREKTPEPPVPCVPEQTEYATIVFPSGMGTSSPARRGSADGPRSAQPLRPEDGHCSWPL
Assay: Jurkat-PD-1 Cell Binding High-Content Screening Assay (CBA)
Assay type: cell-based
Conditions: Jurkat cell line over-expressing human PD-1; PE-labeled PD-L1-Ig 20 nM final; read-out: Jurkat hPD1-PDL1 IC50
Method in brief: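 Jurkat cells over-expressing human PD-1 (8×10^3 per well, DMEM/10% FCS) preincubated with compound 2 h at 37° C, then PE-labeled human PD-L1-Ig (20 nM final) added for 1 h. Cells fixed with paraformaldehyde, Hoechst-stained, and bound fluorescence quantified by high-content imaging.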

Structure (SMILES): Cc1cccc(C[C@@H]2NC(=O)[C@H](CC(=O)O)NC(=O)[C@H](Cc3ccc(OCC(=O)O)cc3)NC(=O)[C@H](Cc3ccc(C(N)=O)cc3)NC(=O)CSC[C@@H](C(=O)N[C@@H](CCCN)C(=O)N[C@@H](CO)C(=O)NCCCCCCCCCCCC(=O)O)NC(=O)[C@H](CO)NC(=O)[C@H](C(C)(C)O)NC(=O)[C@H](CC3CCCCC3)NC(=O)[C@H](CCN)NC(=O)[C@@H](CC(C)C)NC(=O)[C@H](CCCN)NC(=O)[C@H](Cc3ccc(OCC(=O)O)cc3)NC(=O)[C@H](Cc3ccc(-c4ccccc4)cc3)NC(=O)[C@H](Cc3ccc(OCC(=O)O)cc3)NC2=O)c1 [Compound 3618] ({CH2CO}-[Phe(4-CONH2)]Y(Carboxymethyl)D[Phe(3-Me)]Y(Carboxymethyl)[Bip]Y(Carboxymethyl)[Orn][dL][Dab][Cha][Val(3-OH)]SC[Orn]S[12Ado]-OH; thioether N-14)
- IC50: 21.8 nM

Structure (SMILES): CC(=O)NCCCC[C@@H]1NC(=O)[C@H](Cc2ccc(-c3ccccc3)cc2)NC(=O)[C@H](Cc2ccc(O)cc2)NC(=O)[C@H](Cc2cccc(C)c2)NC(=O)[C@H](CC(=O)O)NC(=O)[C@H](Cc2ccc(OCC(=O)O)cc2)NC(=O)[C@H](CN)NC(=O)CSC[C@@H](C(=O)N[C@@H](CCN)C(=O)N[C@@H](CO)C(=O)NCCCCCCCCCCCC(=O)O)NC(=O)[C@H](CCCN)NC(=O)[C@H](C(C)C)NC(=O)[C@H](CC2CCCCC2)NC(=O)[C@H](CCN)NC(=O)[C@@H](CC(C)C)NC(=O)[C@H](CCCN)NC1=O [Compound 3619] ({CH2CO}-[Dap]Y(Carboxymethyl)D[Phe(3-Me)]Y[Bip]K(Ac)[Orn][dL][Dab][Cha]V[Orn]C[Dab]S[12Ado]-OH; thioether N-14)
- IC50: 13.4 nM

Structure (SMILES): CC(=O)NCCCC[C@@H]1NC(=O)[C@H](Cc2ccc(-c3ccccc3)cc2)NC(=O)[C@H](Cc2ccc(O)cc2)NC(=O)[C@H](Cc2cccc(C)c2)NC(=O)[C@H](CC(=O)O)NC(=O)[C@H](Cc2ccc(OCC(=O)O)cc2)NC(=O)[C@H](CCN)NC(=O)CSC[C@@H](C(=O)N[C@@H](CCN)C(=O)N[C@@H](CO)C(=O)NCCCCCCCCCCCC(=O)O)NC(=O)[C@H](CCCN)NC(=O)[C@H](C(C)(C)O)NC(=O)[C@H](CC2CCCCC2)NC(=O)[C@H](CCN)NC(=O)[C@@H](CC(C)C)NC(=O)[C@H](CCCN)NC1=O [Compound 3620] ({CH2CO}-[Dab]Y(Carboxymethyl)D[Phe(3-Me)]Y[Bip]K(Ac)[Orn][dL][Dab][Cha][Val(3-OH)][Orn]C[Dab]S[12Ado]-OH; thioether N-14)
- IC50: 37.2 nM

Structure (SMILES): CC(=O)NCCCC[C@@H]1NC(=O)[C@H](Cc2ccc(-c3ccccc3)cc2)NC(=O)[C@H](Cc2ccc(O)cc2)NC(=O)[C@H](Cc2cccc(C)c2)NC(=O)[C@H](CC(=O)O)NC(=O)[C@H](Cc2ccc(OCC(=O)O)cc2)NC(=O)[C@H](CCN)NC(=O)CSC[C@@H](C(=O)N[C@@H](CCN)C(=O)N[C@@H](CO)C(=O)NCCCCCCCCCCCC(=O)O)NC(=O)[C@H](CCC(=O)O)NC(=O)[C@H](C(C)(C)O)NC(=O)[C@H](CC2CCCCC2)NC(=O)[C@H](CCN)NC(=O)[C@@H](CC(C)C)NC(=O)[C@H](CCCN)NC1=O [Compound 3621] ({CH2CO}-[Dab]Y(Carboxymethyl)D[Phe(3-Me)]Y[Bip]K(Ac)[Orn][dL][Dab][Cha][Val(3-OH)]EC[Dab]S[12Ado]-OH; thioether N-14)
- IC50: 24.3 nM

Structure (SMILES): CC(=O)NCCCC[C@@H]1NC(=O)[C@H](Cc2ccc(-c3ccccc3)cc2)NC(=O)[C@H](Cc2ccc(O)cc2)NC(=O)[C@H](Cc2cccc(C)c2)NC(=O)[C@H](CC(=O)O)NC(=O)[C@H](Cc2ccc(OCC(=O)O)cc2)NC(=O)[C@H](C(C)O)NC(=O)CSC[C@@H](C(=O)N[C@@H](CCN)C(=O)N[C@@H](CO)C(=O)NCCCCCCCCCCCC(=O)O)NC(=O)[C@H](CCCN)NC(=O)[C@H](C(C)(C)O)NC(=O)[C@H](CC2CCCCC2)NC(=O)[C@H](CCN)NC(=O)[C@@H](CC(C)C)NC(=O)[C@H](CCCN)NC1=O (stereo partly drawn) [Compound 3622] ({CH2CO}-[Thr(3ξ)]Y(Carboxymethyl)D[Phe(3-Me)]Y[Bip]K(Ac)[Orn][dL][Dab][Cha][Val(3-OH)][Orn]C[Dab]S[12Ado]-OH; thioether N-14)
- IC50: 18.3 nM

Structure (SMILES): CC(=O)NCCCC[C@@H]1NC(=O)[C@H](Cc2ccc(-c3ccccc3)cc2)NC(=O)[C@H](Cc2ccc(O)cc2)NC(=O)[C@H](Cc2cccc(C)c2)NC(=O)[C@H](CC(=O)O)NC(=O)[C@H](Cc2ccc(OCC(=O)O)cc2)NC(=O)[C@H](CCN)NC(=O)CSC[C@@H](C(=O)N[C@@H](CCN)C(=O)N[C@@H](CO)C(=O)NCCCCCCCCCCCC(=O)O)NC(=O)[C@H](CCCN)NC(=O)[C@H](C(C)O)NC(=O)[C@H](CC2CCCCC2)NC(=O)[C@H](CCN)NC(=O)[C@@H](CC(C)C)NC(=O)[C@H](CCCN)NC1=O (stereo partly drawn) [Compound 3623] ({CH2CO}-[Dab]Y(Carboxymethyl)D[Phe(3-Me)]Y[Bip]K(Ac)[Orn][dL][Dab][Cha][Thr(3ξ)][Orn]C[Dab]S[12Ado]-OH; thioether N-14)
- IC50: 62.3 nM

Structure (SMILES): Cc1cccc(C[C@@H]2NC(=O)[C@H](CC(=O)O)NC(=O)[C@H](Cc3ccc(OCC(=O)O)cc3)NC(=O)[C@H](CCN)NC(=O)CSC[C@@H](C(=O)N[C@@H](CCN)C(=O)N[C@@H](CO)C(=O)NCCCCCCCCCCCC(=O)O)NC(=O)[C@H](CCCN)NC(=O)[C@H](C(C)(C)O)NC(=O)[C@H](CC3CCCCC3)NC(=O)[C@H](CCN)NC(=O)[C@@H](CC(C)C)NC(=O)[C@H](CCCN)NC(=O)[C@H](Cc3ccc(OCC(=O)O)cc3)NC(=O)[C@H](Cc3ccc(-c4ccccc4)cc3)NC(=O)[C@H](Cc3ccc(OCC(=O)O)cc3)NC2=O)c1 [Compound 3624] ({CH2CO}-[Dab]Y(Carboxymethyl)D[Phe(3-Me)]Y(Carboxymethyl)[Bip]Y(Carboxymethyl)[Orn][dL][Dab][Cha][Val(3-OH)][Orn]C[Dab]S[12Ado]-OH; thioether N-14)
- IC50: 21.5 nM

Structure (SMILES): Cc1cccc(C[C@@H]2NC(=O)[C@H](CC(=O)O)NC(=O)[C@H](Cc3ccc(OCC(=O)O)cc3)NC(=O)[C@H](CCN)NC(=O)CSC[C@@H](C(=O)N[C@@H](CCN)C(=O)N[C@@H](CO)C(=O)NCCCCCCCCCCCC(=O)O)NC(=O)[C@H](CO)NC(=O)[C@H](C(C)(C)O)NC(=O)[C@H](CC3CCCCC3)NC(=O)[C@H](CCN)NC(=O)[C@@H](CC(C)C)NC(=O)[C@H](CCCN)NC(=O)[C@H](Cc3ccc(OCC(=O)O)cc3)NC(=O)[C@H](Cc3ccc(-c4ccccc4)cc3)NC(=O)[C@H](Cc3ccc(OCC(=O)O)cc3)NC2=O)c1 [Compound 3625] ({CH2CO}-[Dab]Y(Carboxymethyl)D[Phe(3-Me)]Y(Carboxymethyl)[Bip]Y(Carboxymethyl)[Orn][dL][Dab][Cha][Val(3-OH)]SC[Dab]S[12Ado]-OH; thioether N-14)
- IC50: 23.3 nM

Structure (SMILES): Cc1cccc(C[C@@H]2NC(=O)[C@H](CC(=O)O)NC(=O)[C@H](Cc3ccc(OCC(=O)O)cc3)NC(=O)[C@H](CCN)NC(=O)CSC[C@@H](C(=O)N[C@@H](CCN)C(=O)NCCCCCCCCCCCC(=O)O)NC(=O)[C@H](CCCN)NC(=O)[C@H](C(C)(C)O)NC(=O)[C@H](CC3CCCCC3)NC(=O)[C@H](CCN)NC(=O)[C@@H](CC(C)C)NC(=O)[C@H](CCCN)NC(=O)[C@H](Cc3ccc(OCC(=O)O)cc3)NC(=O)[C@H](Cc3ccc(-c4ccccc4)cc3)NC(=O)[C@H](Cc3ccc(OCC(=O)O)cc3)NC2=O)c1 [Compound 3626] ({CH2CO}-[Dab]Y(Carboxymethyl)D[Phe(3-Me)]Y(Carboxymethyl)[Bip]Y(Carboxymethyl)[Orn][dL][Dab][Cha][Val(3-OH)][Orn]C[Dab][12Ado]-OH; thioether N-14)
- IC50: 7.3 nM

— patent US20260022142A1, “MACROCYCLIC IMMUNOMODULATORS” (Bristol-Myers Squibb Company, priority 2022, published 2026)
